Experimental data taken from patent US12319659B2, “Selective ligand for dopamine D3 receptor, preparation method therefor, and pharmaceutical application thereof” (Shenzhen Linglan Bio-Pharmaceutical Technology Co., Ltd, priority 2017, dated 2025).
Counter-ions that a name gives are not always drawn. Like-named read-outs stand apart in the source and are kept apart here.

Tests used:
[1] = tested on: 6-OHDA-induced Parkinson's disease rats; assay: Rotarod assay in 6-hydroxydopamine-induced Parkinson's disease rats; assay type: in vivo, Sprague Dawley (SD) rats
Method: Experimental Sprague Dawley (SD) rats were randomly divided into an experimental group and a control group. After repeated behavior detection confirmed that there was no rotational behavior, the experiment was performed. Experimental group: rats were anesthetized with a mixture of xylazine (15 mg/kg, i.p.) and ketamine (100 mg/kg, i.p.), and then desipramine hydrochloride (25 mg/kg, s.c.) were used to protect noradrenergic neurons. 6 μg of 6-hydroxydopamine was dissolved in 2.3 μL of 0.9% sterile saline, and injected into the cerebral substantia nigra (antero-posterior −5.4 mm, […] from the bregma which was used as a zero coordinate) at a rate of 0.5 μL/min by using cerebral stereotaxic surgery. Rats in the control group were injected with the same dose of 0.9% sterile saline. After injection, the syringe needle was left in rats for 5 minutes before the needle was slowly withdrawn. After the rats awakened, they were placed in animal facilities for behavioral model evaluation to ensure that 6-hydroxydopamine induced the formation of a model with movement disorders and emotional/motivational disorders. Because hunger is prone to occur as a result of dopamine damage of the midbrain substantia nigra, 20% of rats were given high-calorie food for 1-2 weeks. After 19 days, the D3 receptor-selective ligand was continuously injected intraperitoneally for 3 days. Rats were allowed to accommodate the rotarod on days 19-20, and a rotarod assay was performed on days 21-22.

dopamine D3 receptor [2] = molecular target: T1, dopamine D3 receptor (Homo sapiens, UniProt P35462); assay: cell-based
Method: (§3) Human embryonic kidney-293 cells were cultured in fresh MEM medium containing 10% fetal bovine serum, 100 units of penicillin, and 100 μg/mL streptomycin at 37° C. under 5% CO2. Cells were transfected with DNA plasmids of dopamine D2 and D3 receptors respectively by using polyethylenimine. After transfection for 4 hours, medium was replaced with fresh MEM medium containing fetal bovine serum and the cells were further cultured for 24 hours. The cells were seeded into 24-well plates and cultured for 14-16 hours or overnight. After the medium was discarded, the cells were rinsed with pre-cooled serum-free MEM. Radioligand ([^3H]-sulpiride) and various concentrations of compounds were added into the adherent cells, and incubated in a bath at 4° C. for 150 minutes. The cells were rinsed three times with pre-cooled MEM containing 10 mM HEPES to remove unbound ligands. After the medium was completely removed, the cells were lysed with 1% sodium lauryl sulfate. The remaining radioligands were detected with a liquid scintillation counter to calculate the relative amount of bound compounds.

[3] = Solubility assay in anhydrous ethanol; assay type: physicochemical; conditions: organic solvent or mixture
Source text: (§1) Solubility Assay of the D3 Receptor-Selective Ligand

[4] = Solubility assay in water; assay type: physicochemical
Source text: as §1

dopamine D2 receptor [5] = molecular target: T2, dopamine D2 receptor (Homo sapiens, UniProt P14416); assay: Competitive inhibition test using radioligands ([3H]-sulpiride), D2 receptor; assay type: binding; conditions: for Ki: [3H]-sulpiride competition, HEK-293 cells, read-out: KiD2R; for D2 Receptor Displacement (%) / inhibition: [3H]-sulpiride; for inhibition: read-out: D2 Receptor Displacement (%)
T2 construct: expressed in transfected cells; host or cells: Human embryonic kidney-293 cells
Method: as §3

dopamine D3 receptor [6] = molecular target: T1, dopamine D3 receptor
Method: as §3

[7] = molecular target: T3, human dopamine D4 receptor (Homo sapiens, UniProt P21917); assay: Intrinsic functional experiment, CRE luciferase reporter gene assay, D4 receptor; assay type: cell-based; conditions: 2 μM forskolin, HEK-293 cells, quinpirole positive control
T3 construct: expressed in transfected cells; host or cells: Human embryonic kidney-293 cells
T3 sequence (P21917 1-419): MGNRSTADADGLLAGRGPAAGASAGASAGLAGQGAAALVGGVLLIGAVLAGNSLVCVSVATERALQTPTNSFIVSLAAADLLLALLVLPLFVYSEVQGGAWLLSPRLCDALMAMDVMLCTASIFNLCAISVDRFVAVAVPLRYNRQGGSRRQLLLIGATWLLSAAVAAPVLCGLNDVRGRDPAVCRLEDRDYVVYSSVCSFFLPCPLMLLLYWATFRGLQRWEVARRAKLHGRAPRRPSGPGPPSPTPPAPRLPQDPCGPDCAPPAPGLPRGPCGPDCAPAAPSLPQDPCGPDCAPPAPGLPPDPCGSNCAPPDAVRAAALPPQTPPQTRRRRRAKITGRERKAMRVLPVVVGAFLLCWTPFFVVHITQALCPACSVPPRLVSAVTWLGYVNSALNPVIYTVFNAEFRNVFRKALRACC
Method: (§2) Human embryonic kidney-293 cells were transfected with complementary DNA of human dopamine D2, D3 and D4 receptors and a luciferase reporter gene transcriptionally controlled by CRE. The cells transfected with an empty vector were used as a negative control. The cells were seeded into 24-well plates, and 2 μM of forskolin and various concentrations of compounds were added. Cells added with quinpirole were used as a positive control group. After four hours' incubation, cells were lysed with cell lysis buffer for 20 minutes and then centrifuged. The supernatant was reacted with 25 μL of luciferase substrate and the expression level of luciferase was detected by using a dual luciferase reporter vector kit.

dopamine D2 receptor [8] = molecular target: T2, dopamine D2 receptor; assay: Intrinsic functional experiment, CRE luciferase reporter gene assay, D2 receptor; assay type: cell-based; conditions: 2 μM forskolin, HEK-293 cells, quinpirole positive control
Method: as §2

dopamine D3 receptor [9] = molecular target: T1, dopamine D3 receptor; assay: Intrinsic functional experiment, CRE luciferase reporter gene assay, D3 receptor; assay type: cell-based; set-up: expressed in transfected cells; host or cells: Human embryonic kidney-293 cells; conditions: 2 μM forskolin, HEK-293 cells, quinpirole positive control
Method: as §2

[10] = arylpiperazine-arylurea compounds at 100 nM, HEK-293 cells (Table 2)
[11] = arylpiperazine-phthalimide compounds at 100 nM, HEK-293 cells (Table 1)
[12] = intraperitoneal for 3 days, 6-hydroxydopamine rats

T1 sequence (P35462 whole entry): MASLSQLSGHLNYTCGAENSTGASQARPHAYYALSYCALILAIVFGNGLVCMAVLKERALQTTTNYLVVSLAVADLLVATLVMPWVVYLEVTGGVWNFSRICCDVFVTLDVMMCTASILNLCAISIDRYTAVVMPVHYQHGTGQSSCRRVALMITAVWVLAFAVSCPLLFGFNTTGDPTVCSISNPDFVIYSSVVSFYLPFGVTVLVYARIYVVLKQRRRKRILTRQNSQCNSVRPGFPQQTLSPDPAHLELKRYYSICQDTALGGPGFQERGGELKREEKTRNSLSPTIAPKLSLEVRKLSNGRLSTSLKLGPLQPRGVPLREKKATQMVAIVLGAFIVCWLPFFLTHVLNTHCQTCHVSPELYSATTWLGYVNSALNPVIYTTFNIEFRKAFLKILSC
T2 sequence (P14416 whole entry): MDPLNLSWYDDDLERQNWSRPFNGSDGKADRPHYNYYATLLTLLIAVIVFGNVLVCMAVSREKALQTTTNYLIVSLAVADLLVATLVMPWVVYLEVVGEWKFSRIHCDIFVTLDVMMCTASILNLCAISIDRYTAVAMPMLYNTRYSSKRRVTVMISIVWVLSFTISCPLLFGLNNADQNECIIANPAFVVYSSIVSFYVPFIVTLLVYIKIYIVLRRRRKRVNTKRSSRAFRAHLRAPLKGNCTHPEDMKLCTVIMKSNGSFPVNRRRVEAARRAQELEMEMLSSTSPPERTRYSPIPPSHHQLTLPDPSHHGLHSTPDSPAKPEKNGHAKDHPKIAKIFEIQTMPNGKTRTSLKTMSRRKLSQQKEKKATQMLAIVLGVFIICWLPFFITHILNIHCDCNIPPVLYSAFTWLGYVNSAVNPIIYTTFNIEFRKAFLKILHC

Q: Which results are given for O=C(NCCCCN1CCN(c2ccc(Cl)cc2)CC1)Nc1cnc2ccccc2c1 [8i•HCl, 1-(4-(4-(4-chlorophenyl)piperazin-1-yl)butyl)-3-(quinolin-3-yl)urea]?
A: effect compared with apomorphine (positive control drug) ([1]; 6-hydroxydopamine rats): comparable to the effect of apomorphine; motor dysfunction induced by 6-hydroxydopamine ([1]; intraperitoneal for 3 days): significantly improved; Ki (dopamine D3 receptor [2]): 14.3 nM; solubility ([3]; 8.53 mg/mL): < 8530 µg/mL; solubility ([3]; 25.6 mg/mL): < 8530 µg/mL; Solubility in water ([4]; 1 mg/mL): + (+ indicates that the compound was completely dissolved); Solubility in water ([4]; 3 mg/mL): + (+ indicates that the compound was completely dissolved); Solubility in water ([4]; 6 mg/mL): + (+ indicates that the compound was completely dissolved); Solubility in water ([4]; 12 mg/mL): + (+ indicates that the compound was completely dissolved); Ki (dopamine D2 receptor [5]): 53.1 µM; D2 Receptor Displacement (%) (dopamine D2 receptor [5]; [10]): 15.2 ± 1.6%

Q: For O=C(NCCCCN1CCN(c2cccc(Cl)c2Cl)CC1)c1cc2ccccc2[nH]1 [31j•HCl, N-(4-(4-(2,3-dichlorophenyl)piperazin-1-yl)butyl)-1H-indole-2-carboxamide, reference compound], which Ki (dopamine D3 receptor [6]) is on record?
A: Its Ki is 15.6 nM.

Q: Which results are given for O=C1c2ccccc2C(=O)N1CCCCN1CCN(c2cccc(F)c2F)CC1 [Compound 3d, 2-(4-(4-(2,3-fluorophenyl)piperazin-1-yl)butyl)isoindoline-1,3-dione]?
A: Ki (dopamine D3 receptor [6]): 19.3 nM; Ki (dopamine D2 receptor [5]): 2.16 µM; D2 Receptor Displacement (%) (dopamine D2 receptor [5]; [11]): 17.7 ± 3.7%

Q: Which “D2 Receptor Displacement (%)” value (dopamine D2 receptor [5]; [11]) does the source give for O=C1c2ccccc2C(=O)N1CCCCN1CCN(c2ccc(Cl)cc2)CC1 [Compound 3i, 2-(4-(4-(4-chlorophenyl)piperazin-1-yl)butyl)isoindoline-1,3-dione] here?
A: The value was 59.2 ± 18.3%.

Q: For O=C1c2ccccc2C(=O)N1CCCCN1CCN(c2cccc(Cl)c2Cl)CC1 [Compound 3j, 2-(4-(4-(2,3-dichlorophenyl)piperazin-1-yl)butyl)isoindoline-1,3-dione], which inhibition (dopamine D2 receptor [5]; [11]) is on record?
A: The inhibition was 70.3 ± 2.7%.

Q: For O=C1c2ccccc2C(=O)N1CCCCN1CCN(c2ccc(Cl)cc2F)CC1 [Compound 3m, 2-(4-(4-(4-chloro-2-fluorophenyl)piperazin-1-yl)butyl)isoindoline-1,3-dione], which inhibition (dopamine D2 receptor [5]; [11]) is on record?
A: Its inhibition is 2.8 ± 12%.

Q: With O=C1c2ccccc2C(=O)N1CCCCN1CCN(c2cc(C(F)(F)F)ccc2F)CC1 [Compound 3n, 2-(4-(4-(2-fluoro-5-(trifluoromethyl)phenyl)piperazin-1-yl)butyl)isoindoline-1,3-dione] as the molecule, how does the inhibition (dopamine D2 receptor [5]; [11]) read?
A: The inhibition was -4.7 ± 7.8%.

Q: Which inhibition (dopamine D2 receptor [5]; [11]) does the source give for O=C1c2ccccc2C(=O)N1CCCCN1CCN(c2cccc(C(F)(F)F)c2)CC1 [Compound 3p, 2-(4-(4-(3-(trifluoromethyl)phenyl)piperazin-1-yl)butyl)isoindoline-1,3-dione] here?
A: The inhibition was 44 ± 1.6%.

Q: Which “activation of signaling pathways downstream of D4 receptors (printed as D3 receptors)” value [7] does the source give for O=C(NCCCCN1CCN(c2ccc(Cl)cc2)CC1)Nc1cnc2ccccc2c1 [Compound 8i, 1-(4-(4-(4-chlorophenyl)piperazin-1-yl)butyl)-3-(quinolin-3-yl)urea] here?
A: Its value is “didn't activate”.

Q: And the “activation of signaling pathways downstream of D2 receptors” value (dopamine D2 receptor [8])?
A: The value was “didn't activate”.

Q: And the frequency of falling [1, 12]?
A: The frequency of falling was “reduced the frequency of falling”.

Q: What about the latency to fall [1, 12] of the same molecule?
A: The latency to fall was “increased the latency to fall”.

Q: What about the “activation of signaling pathways downstream of D3 receptors” value (dopamine D3 receptor [9]) of the same molecule?
A: The value was “activated signaling pathways downstream of D3 receptors”.

Q: And the Ki (dopamine D3 receptor [2])?
A: Its Ki is 7.4 nM.

Q: What about the selectivity ratio (dopamine D3 receptor [6]) of the same molecule?
A: Its selectivity ratio is greater than 10000.

Q: What about the solubility ([3]; 3.3 mg/mL) of the same molecule?
A: Its solubility is greater than 3300 µg/mL.

Q: And the solubility ([3]; 5 mg/mL)?
A: The solubility was less than 5000 µg/mL.

Q: What about the solubility ([3]; 10 mg/mL) of the same molecule?
A: Its solubility is less than 5000 µg/mL.

Q: And the Solubility in water ([4]; 1 mg/mL)?
A: Its Solubility in water is “+ (+ indicates that the compound was completely dissolved)”.

Q: And the Solubility in water ([4]; 3 mg/mL)?
A: Its Solubility in water is “− (− indicates that the compound was un-dissolved or not completely dissolved)”.

Q: And the Solubility in water ([4]; 6 mg/mL)?
A: Its Solubility in water is “− (− indicates that the compound was un-dissolved or not completely dissolved)”.

Q: And the Solubility in water ([4]; 12 mg/mL)?
A: Its Solubility in water is “− (− indicates that the compound was un-dissolved or not completely dissolved)”.

Q: And the Ki (dopamine D2 receptor [5])?
A: Its Ki is greater than 79.6 µM.

Q: What about the inhibition (dopamine D2 receptor [5]; [10]) of the same molecule?
A: The inhibition was 10.2 ± 6.7%.

Q: Which “D2 Receptor Displacement (%)” value (dopamine D2 receptor [5]; [10]) does the source give for O=C(NCCCCN1CCN(c2cc(C(F)(F)F)ccc2F)CC1)Nc1cnc2ccccc2c1 [Compound 8n, 1-(4-(4-(2-fluoro-5-(trifluoromethyl)phenyl)piperazin-1-yl)butyl)-3-(quinolin-3-yl)urea] here?
A: The value was 24.9 ± 1.8%.

Q: Which “D2 Receptor Displacement (%)” value (dopamine D2 receptor [5]; [10]) does the source give for O=C(NCCCCN1CCN(c2cccc(C(F)(F)F)c2)CC1)Nc1cnc2ccccc2c1 [Compound 8p, 1-(4-(4-(3-(trifluoromethyl)phenyl)piperazin-1-yl)butyl)-3-(quinolin-3-yl)urea] here?
A: Its value is −6.7 ± 4.2%.

Q: With O=C(NCCCCN1CCN(c2ccc(Cl)cc2)CC1)Nc1cc2ccccc2cn1 [Compound 11i, 1-(4-(4-(4-chlorophenyl)piperazin-1-yl)butyl)-3-(isoquinolin-3-yl)urea] as the molecule, how does the inhibition (dopamine D2 receptor [5]; [10]) read?
A: Its inhibition is -14.7 ± 1.8%.

Q: With O=C(NCCCCN1CCN(c2ccc(Cl)cc2)CC1)Nc1nc2ccccc2s1 [Compound 21i, 1-(benzothiazol-2-yl)-3-(4-(4-(4-chlorophenyl)piperazin-1-yl)butyl)urea] as the molecule, how does the inhibition (dopamine D2 receptor [5]; [10]) read?
A: The inhibition was 36.8 ± 6.5%.

Q: Which inhibition (dopamine D2 receptor [5]; [10]) does the source give for O=C(NCCCCN1CCN(c2cccc(Cl)c2Cl)CC1)Nc1nc2ccccc2s1 [Compound 21j, 1-(benzothiazol-2-yl)-3-(4-(4-(2,3-dichlorophenyl)piperazin-1-yl)butyl)urea] here?
A: Its inhibition is 35.5 ± 3.4%.

Q: With O=C(NCCCCN1CCN(c2ccc(Cl)cc2Cl)CC1)Nc1nc2ccccc2s1 [Compound 21k, 1-(benzothiazol-2-yl)-3-(4-(4-(2,4-dichlorophenyl)piperazin-1-yl)butyl)urea] as the molecule, how does the “D2 Receptor Displacement (%)” value (dopamine D2 receptor [5]; [10]) read?
A: Its value is 40.8 ± 5.6%.

Q: For O=C(NCCCCN1CCN(c2cccc(Cl)c2Cl)CC1)c1cc2ccccc2[nH]1 [Compound 31j, N-(4-(4-(2,3-dichlorophenyl)piperazin-1-yl)butyl)-1H-indole-2-carboxamide, reference compound], which Ki (dopamine D3 receptor [2]) is on record?
A: Its Ki is 6210 nM.

Q: For CCN1CCCC1CNC(=O)c1cc(S(N)(=O)=O)ccc1OC (centres unmarked) [sulpiride, reference compound], which inhibition (dopamine D2 receptor [5]; [11]) is on record?
A: Its inhibition is 92.2 ± 0.1%.
